Test results taken from patent US20250120932A1, “PHARMACEUTICAL COMPOSITION” (NEUROPRO THERAPEUTICS, INC., priority 2021, published 2025).
Where “and” joins values, the source holds several entries; their conditions need not be identical. Equal entries are not always repeated.

Test: Pharmacokinetic study in cynomolgus monkeys after oral (nasogastric) gavage, sublingual and intravenous administration
Type: in vivo
Settings: monkey
Experimental: A pharmacokinetic study was done in cynomolgus monkeys following single oral (nasogastric) gavage, sublingual, and intravenous administration. […] Calibration curves, blanks, and analytical QCs were prepared in monkey plasma (K2EDTA). The extracts were evaporated to dryness, reconstituted, and then analyzed by LC-MS/MS. The calibration range was 0.250-250 ng/mL for both analytes.
If the criteria for either the calibration curve or the analytical QCs were not met, the analytical run was rejected. […] No deviations were found during the bioanalytical phase of the study conducted by Origin. Calibration curves were derived from the individual analyte to internal standard peak area ratios using the least squared regression of the ratio versus the nominal concentration of the calibration standard, prepared in duplicate. The regression was then used to back-calculate the concentration of each calibration standard, QC sample and study sample. […] Analyst® Software Version 1.6.3 (Applied Biosystems-MDS Sciex), operated with Windows® (Microsoft), was used for instrument control, data acquisition, and peak integrations. Peak area ratios, standard curve regressions, and sample concentration/accuracy values were calculated with Analyst® Software Version 1.6.3. Other results (e.g., mean statistics) were calculated with Excel® (Microsoft).
There was no apparent sex difference for the second formulation. […] A fourth formulation comprising the composition B listed in Table 54 was also administered in monheys.

- concentration at 1 h (cynomolgus monkey, plasma, other: sublingual, 5 mg/kg, Plasma Bumetanide Dibenzylamide concentration, SL, dose column 5 mg/kg (title 30 mg/kg), Fourth Formulation (Form 2), 1.0 h, individual animals): 0 ng/mL
- concentration at 0.08 h (cynomolgus, cynomolgus monkey, plasma, intravenous, 2 mg/kg, Plasma Bumetanide Dibenzylamide concentration, Median, dose column 2 mg/kg (title 30 mg/kg), Third Formulation (Form 4), 0.08 h, N=4): 1370 ng/mL
- concentration at 0.5 h (cynomolgus, cynomolgus monkey, plasma, intravenous, 2 mg/kg, Plasma Bumetanide Dibenzylamide concentration, Median, dose column 2 mg/kg (title 30 mg/kg), Third Formulation (Form 4), 0.50 h, N=4): 672 ng/mL
- concentration at 1 h (cynomolgus, cynomolgus monkey, plasma, intravenous, 2 mg/kg, Plasma Bumetanide Dibenzylamide concentration, Median, dose column 2 mg/kg (title 30 mg/kg), Third Formulation (Form 4), 1.00 h, N=4): 504 ng/mL
- concentration at 2 h (cynomolgus, cynomolgus monkey, plasma, intravenous, 2 mg/kg, Plasma Bumetanide Dibenzylamide concentration, Median, dose column 2 mg/kg (title 30 mg/kg), Third Formulation (Form 4), 2.00 h, N=4): 297 ng/mL
- concentration at 4 h (cynomolgus, cynomolgus monkey, plasma, intravenous, 2 mg/kg, Plasma Bumetanide Dibenzylamide concentration, Median, dose column 2 mg/kg (title 30 mg/kg), Third Formulation (Form 4), 4.00 h, N=4): 109 ng/mL
- concentration at 8 h (cynomolgus, cynomolgus monkey, plasma, intravenous, 2 mg/kg, Plasma Bumetanide Dibenzylamide concentration, Median, dose column 2 mg/kg (title 30 mg/kg), Third Formulation (Form 4), 8.00 h, N=4): 27.2 ng/mL
- concentration at 24 h (cynomolgus, cynomolgus monkey, plasma, intravenous, 2 mg/kg, Plasma Bumetanide Dibenzylamide concentration, Median, dose column 2 mg/kg (title 30 mg/kg), Third Formulation (Form 4), 24.00 h, N=4): 2.62 ng/mL
- concentration at 32 h (cynomolgus, cynomolgus monkey, plasma, intravenous, 2 mg/kg, Plasma Bumetanide Dibenzylamide concentration, Median, dose column 2 mg/kg (title 30 mg/kg), Third Formulation (Form 4), 32.00 h, N=4): 0.917 ng/mL
- Plasma Bumetanide Dibenzylamide concentration (IV, dose column 2 mg/kg (title 30 mg/kg), Third Formulation (Form 4), 0.08 h, individual animals): 1430 ng/mL and 1160 ng/mL and 1310 ng/mL
- Plasma Bumetanide Dibenzylamide concentration (IV, dose column 2 mg/kg (title 30 mg/kg), Third Formulation (Form 4), 0.50 h, individual animals): 757 ng/mL and 555 ng/mL and 626 ng/mL
- Plasma Bumetanide Dibenzylamide concentration (IV, dose column 2 mg/kg (title 30 mg/kg), Third Formulation (Form 4), 1.00 h, individual animals): 536 ng/mL and 472 ng/mL and 385 ng/mL
- Plasma Bumetanide Dibenzylamide concentration (IV, dose column 2 mg/kg (title 30 mg/kg), Third Formulation (Form 4), 2.00 h, individual animals): 316 ng/mL and 278 ng/mL and 214 ng/mL
- Plasma Bumetanide Dibenzylamide concentration (IV, dose column 2 mg/kg (title 30 mg/kg), Third Formulation (Form 4), 4.00 h, individual animals): 87.8 ng/mL and 129 ng/mL and 89.3 ng/mL
- Plasma Bumetanide Dibenzylamide concentration (NG 30 mg/kg, First Formulation (Form 1), 0.00 h, individual animals, female monkeys): 0.00 ng/mL
- Plasma Bumetanide Dibenzylamide concentration (NG 30 mg/kg, First Formulation (Form 1), 0.00 h, individual animals, male monkeys): 0.00 ng/mL
- Plasma Bumetanide Dibenzylamide concentration (NG 30 mg/kg, First Formulation (Form 1), 0.25 h, individual animals, female monkeys): 0.992 ng/mL and 0.398 ng/mL
- Plasma Bumetanide Dibenzylamide concentration (NG 30 mg/kg, First Formulation (Form 1), 0.25 h, individual animals, male monkeys): 0.932 ng/mL and 14.9 ng/mL
- Plasma Bumetanide Dibenzylamide concentration (NG 30 mg/kg, First Formulation (Form 1), 0.50 h, individual animals, female monkeys): 1.66 ng/mL and 1.18 ng/mL
- Plasma Bumetanide Dibenzylamide concentration (NG 30 mg/kg, First Formulation (Form 1), 0.50 h, individual animals, male monkeys): 3.97 ng/mL and 16.8 ng/mL
- Plasma Bumetanide Dibenzylamide concentration (NG 30 mg/kg, First Formulation (Form 1), 1.00 h, individual animals, female monkeys): 8.08 ng/mL and 3.01 ng/mL
- Plasma Bumetanide Dibenzylamide concentration (NG 30 mg/kg, First Formulation (Form 1), 1.00 h, individual animals, male monkeys): 12.1 ng/mL and 29.7 ng/mL
- Plasma Bumetanide Dibenzylamide concentration (NG 30 mg/kg, First Formulation (Form 1), 2.00 h, individual animals, female monkeys): 11.1 ng/mL and 8.35 ng/mL
- Plasma Bumetanide Dibenzylamide concentration (NG 30 mg/kg, First Formulation (Form 1), 2.00 h, individual animals, male monkeys): 157 ng/mL and 74.0 ng/mL
- Plasma Bumetanide Dibenzylamide concentration (NG 30 mg/kg, First Formulation (Form 1), 4.00 h, individual animals, female monkeys): 9.83 ng/mL and 23.8 ng/mL
- Plasma Bumetanide Dibenzylamide concentration (NG 30 mg/kg, First Formulation (Form 1), 4.00 h, individual animals, male monkeys): 182 ng/mL and 51.4 ng/mL
- Plasma Bumetanide Dibenzylamide concentration (NG 30 mg/kg, First Formulation (Form 1), 8.00 h, individual animals, female monkeys): 17.5 ng/mL and 17.0 ng/mL
- Plasma Bumetanide Dibenzylamide concentration (NG 30 mg/kg, First Formulation (Form 1), 8.00 h, individual animals, male monkeys): 99.9 ng/mL and 45.1 ng/mL
- Plasma Bumetanide Dibenzylamide concentration (NG 30 mg/kg, First Formulation (Form 1), 24.00 h, individual animals, female monkeys): 3.28 ng/mL and 2.02 ng/mL
- Plasma Bumetanide Dibenzylamide concentration (NG 30 mg/kg, First Formulation (Form 1), 24.00 h, individual animals, male monkeys): 21.6 ng/mL and 7.47 ng/mL
- Plasma Bumetanide Dibenzylamide concentration (NG 30 mg/kg, First Formulation (Form 1), 32.00 h, individual animals, female monkeys): 0.790 ng/mL and 1.37 ng/mL
- Plasma Bumetanide Dibenzylamide concentration (NG 30 mg/kg, First Formulation (Form 1), 32.00 h, individual animals, male monkeys): 9.75 ng/mL and 6.13 ng/mL
- Plasma Bumetanide Dibenzylamide concentration (NG 30 mg/kg, Second Formulation (Form 3), 0.00 h, individual animals, female monkeys): 0.00 ng/mL
Structure (SMILES): CCCCNc1cc(C(=O)N(Cc2ccccc2)Cc2ccccc2)cc(S(N)(=O)=O)c1Oc1ccccc1 [Bumetanide Dibenzylamide, N, N-dibenzyl 3-aminosulfonyl-5-butylamino-4-phenoxybenzamide]
- Plasma Bumetanide Dibenzylamide concentration (IV, dose column 2 mg/kg (title 30 mg/kg), Third Formulation (Form 4), 8.00 h, individual animals): 51.4 ng/mL and 26.6 ng/mL and 27.7 ng/mL and 17.2 ng/mL
- Plasma Bumetanide Dibenzylamide concentration (IV, dose column 2 mg/kg (title 30 mg/kg), Third Formulation (Form 4), 24.00 h, individual animals): 3.95 ng/mL and 0.942 ng/mL and 8.10 ng/mL and 1.28 ng/mL
- Plasma Bumetanide Dibenzylamide concentration (IV, dose column 2 mg/kg (title 30 mg/kg), Third Formulation (Form 4), 32.00 h, individual animals): 1.47 ng/mL and 0.303 ng/mL and 3.80 ng/mL and 0.363 ng/mL
